Experimental data taken from patent publication US7022716B2, “Cyclic amine phenyl beta-3 adrenergic receptor agonists” (Wyeth, priority 2000, dated 2006).
Counter-ions that a name gives are not always drawn.

Assays:
[1] = molecular target: T1, human β3 adrenergic receptor (Homo sapiens, UniProt P13945); test: cAMP (SPA) response in CHO cells transfected with human β3 adrenergic receptor; format: cell-based; design: key: fraction of maximal isoproterenol (10^-5 M) response; details: maximal response relative to maximal response of isoproterenol at 10^-5 M
T1 construct: Full length β3 AR clones (402 amino acids) containing the last 6 amino acids of hβ3-AR are prepared; expressed in transfected cells; host or cells: CHO (Chinese hamster ovary) cells
How it was run: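 Reactions were stopped with 0.2N HCl and neutralised, and cAMP was measured by SPA. Activity is expressed as percent of the maximal 10^−5 M isoproterenol response.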

T1 sequence (P13945 whole entry): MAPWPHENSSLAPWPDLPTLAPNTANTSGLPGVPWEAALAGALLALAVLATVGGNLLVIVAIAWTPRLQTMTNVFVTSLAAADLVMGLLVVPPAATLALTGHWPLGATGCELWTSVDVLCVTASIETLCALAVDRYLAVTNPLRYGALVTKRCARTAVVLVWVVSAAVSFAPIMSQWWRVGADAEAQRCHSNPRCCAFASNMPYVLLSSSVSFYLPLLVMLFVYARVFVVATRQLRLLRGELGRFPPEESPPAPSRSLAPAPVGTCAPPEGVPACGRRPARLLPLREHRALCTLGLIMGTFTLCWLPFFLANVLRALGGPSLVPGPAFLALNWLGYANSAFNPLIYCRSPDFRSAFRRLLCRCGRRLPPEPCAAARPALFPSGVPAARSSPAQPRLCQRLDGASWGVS

SMILES	melting point	IA(β3) [1]
CCCCN(CC(=O)OCC)C(=O)c1ccc(N2CCC(NC[C@H](O)c3ccc(O)c(NS(C)(=O)=O)c3)CC2)cc1 [Example 207, [Butyl-(4-{4-[(2R)-2-hydroxy-2-(4-hydroxy-3-methanesulfonylamino-phenyl)-ethylamino]-piperidin-1-yl}-benzoyl)-amino]-acetic acid ethyl ester]	> 60 °C (dec.)	1
CS(=O)(=O)Nc1cc(C(O)CNC2CCN(c3ccc(C=C4SC(=O)NC4=O)cc3Br)CC2)ccc1O (centres unmarked) [Example 70, N-[5-(2-{1-[2-Bromo-4-(2,4-dioxo-thiazolidin-5-ylidenemethyl)-phenyl]-piperidin-4-ylamino}-1-hydroxy-ethyl)-2-hydroxy-phenyl]-methanesulfonamide]	> 200 °C	1.2
CS(=O)(=O)Nc1cc([C@@H](O)CNC2CCN(c3ccc(-c4nnnn4CC(=O)O)cc3)CC2)ccc1O [Example 99, [5-(4-{4-[((2R)-2-Hydroxy-2-{4-hydroxy-3-[(methylsulfonyl)amino]phenyl}ethyl)amino]-1-piperidinyl}phenyl)-1H-tetraazol-1-yl]acetic acid]	> 210 °C (dec.)	0.97
CS(=O)(=O)Nc1cc([C@@H](O)CNC2CCN(c3ccc(CCC(=O)O)cc3)CC2)ccc1O [Example 184, 3-(4-{4-[(R)-2-Hydroxy-2-(4-hydroxy-3-methanesulfonylamino-phenyl)-ethylamino]-piperidin-1-yl}-phenyl)-propionic acid]	130 to 133 °C	1.1
N=C1NC(=O)C(Cc2ccc(N3CCC(NC[C@H](O)COc4cccc5[nH]c(=O)[nH]c45)CC3)cc2)S1 (stereo partly drawn) [Example 89, 4-((2S)-2-Hydroxy-3-{1-[4-(2-imino-4-oxo-thiazolidin-5-ylmethyl)-phenyl]-piperidin-4-ylamino}-propoxy)-1,3-dihydro-benzoimidazol-2-one]	> 155 °C (dec.)	1.1
O=C(Nc1ccc(N2CCC(NC[C@H](O)COc3cccc4[nH]c5ccccc5c34)CC2)cc1)c1ccc2c(c1)OCO2 [Example 391, N-[4-(4-{[(2S)-3-(9H-Carbazol-4-yloxy)-2-hydroxypropyl]amino}-1-piperidinyl)phenyl]-1,3-benzodioxole-5-carboxamide]	217 to 223 °C	0.81
COc1ccc(C(=O)Nc2ccc(N3CCC(NC[C@H](O)COc4ccc(O)cc4)CC3)cc2)cc1OC [Example 388, N-[4-(4-{[(2S)-2-Hydroxy-3-(4-hydroxyphenoxy)propyl]amino}-1-piperidinyl)phenyl]-3,4-dimethoxybenzamide]	77 to 84 °C	0.75
COc1ccc(C(=O)Nc2ccc(N3CCC(NC[C@H](O)COc4cccc5[nH]c6ccccc6c45)CC3)cc2)cc1OC [Example 389, N-[4-(4-{[(2S)-3-(9H-Carbazol-4-yloxy)-2-hydroxypropyl]amino}-1-piperidinyl)phenyl]3,4-dimethoxybenzamide]	183 to 191 °C	0.61
COC(=O)[C@@H]1CCCN1C(=O)c1ccc(N2CCC(NC[C@H](O)c3ccc(O)c(NS(C)(=O)=O)c3)CC2)cc1 [Example 200, 1-(4-{4-[(2R)-2-Hydroxy-2-(4-hydroxy-3-methanesulfonylamino-phenyl)-ethylamino]-piperidin-1-yl}-benzoyl)-pyrrolidine-(2S)-2-carboxylic acid methyl ester]	> 80 °C (dec.)	1.1
CS(=O)(=O)Nc1cc([C@@H](O)CNC2CCN(c3ccc(COCC(=O)O)cc3)CC2)ccc1O [Example 185, (4-{4-[(2R)-2-Hydroxy-2-(4-hydroxy-3-methanesulfonylamino-phenyl)-ethylamino]-piperidin-1-yl}-benzyloxy)-acetic acid]	> 145 °C (dec.)	0.69
CCOC(=O)/C=C/c1ccc(N2CCC(NC[C@H](O)c3ccc(O)c(NS(C)(=O)=O)c3)CC2)cc1 [Example 183, (E)-3-(4-{4-[(2R)-2-Hydroxy-2-(4-hydroxy-3-methanesulfonylamino-phenyl)-ethylamino]-piperidin-1-yl}-phenyl)-acrylic acid ethyl ester]	103 to 106 °C	0.84
CCOC(=O)CN1C(=O)SC(Cc2ccc(N3CCC(NC[C@H](O)c4ccc(O)c(NS(C)(=O)=O)c4)CC3)cc2)C1=O (stereo partly drawn) [Example 66, 5-[[4-[4-[[(R)-2-Hydroxy-2-[4-hydroxy-3-[(methylsulfonyl)amino]phenyl]ethyl]amino]-1-piperidinyl]phenyl]methyl]-2,4-dioxo-3-thiazolidineacetic acid ethyl-ester]	153 to 155 °C	0.81
O=C1NC(=O)C(Cc2ccc(N3CCC(NCC(O)COc4cccc5[nH]c(=O)[nH]c45)CC3)cc2)N1 (centres unmarked) [Example 86]	> 132 °C (dec.)	0.69
CCOC(=O)C(=Cc1ccc(N2CCC(NCC(O)c3ccc(O)c(NS(C)(=O)=O)c3)CC2)cc1)C(=O)OCC (centres unmarked) [Example 188, 2-(4-{4-[2-Hydroxy-2-(4-hydroxy-3-methanesulfonylamino-phenyl)-ethylamino]-piperidin-1-yl}-benzylidene)-malonic acid diethyl ester]	> 80 °C (dec.)	0.91
O=C1CCc2c(OC[C@@H](O)CNC3CCN(c4ccc(CC5SC(=O)NC5=O)cc4)CC3)ccc(O)c2N1 (stereo partly drawn) [Example 91, 5-(4-{4-[(2S)-2-Hydroxy-3-(8-hydroxy-2-oxo-1,2,3,4-tetrahydro-quinolin-5-yloxy)-propylamino]-piperidin-1-yl}-benzyl)-thiazolidine-2,4-dione]	> 140 °C (dec.)	1.2
CS(=O)(=O)Nc1cc([C@@H](O)CNC2CCN(c3ccc(C(=O)N[C@@H](Cc4ccccc4)C(=O)O)cc3)CC2)ccc1O (as salt: sodium) [Example 205, (2S)-2-(4-{4-[(2R)-2-Hydroxy-2-(4-hydroxy-3-methanesulfonylamino-phenyl)-ethylamino]-piperidin-1-yl}-benzoylamino)-3-phenyl-propionic acid]	> 160 °C (dec.)	
CC(C)[C@H](NC(=O)c1ccc(N2CCC(NC[C@H](O)c3ccc(O)c(NS(C)(=O)=O)c3)CC2)cc1)C(=O)O (as salt: sodium) [Example 203, (2S)-2-(4-{4-[(2R)-2-Hydroxy-2-(4-hydroxy-3-methanesulfonylamino-phenyl)-ethylamino]-piperidin-1-yl}-benzoylamino)-3-methyl-butyric acid]	> 135 °C (dec.)	
O=C1NC(=O)C(Cc2ccc(N3CCC(NC[C@H](O)c4cc(-c5ccc(Cl)c(Cl)c5)no4)CC3)cc2)S1 (stereo partly drawn) [Example 110, 5-{4-[4-({(2S)-2-[3-(3,4-Dichlorophenyl)isoxazol-5-yl]-2-hydroxyethyl}-amino)piperidine-1-yl}benzyl}-1,3-thiazole-2,4-dione]	110 °C	
O=C1NC(=O)C(Cc2ccc(N3CCC(NC[C@H](O)c4csc(C(F)(F)F)n4)CC3)cc2)S1 (stereo partly drawn) [Example 106, 5-{4-[4-({(2S)-2-Hydroxy-2-[2-(trifluoromethyl)-1,3-thiazol-4-yl]ethyl}amino)piperidine-1-yl]benzyl}-1,3-thiazolidine-2,4-dione]	108 to 113 °C	
Cl.Nc1ccc([C@H](O)CNC2CCN(c3ccc(CC4SC(=O)NC4=O)cc3)CC2)cn1 (some centres unmarked)	182 °C (dec.)	
CC(C)S(=O)(=O)Nc1cc([C@@H](O)CNC2CCN(c3ccc(CC4SC(=O)NC4=O)cc3)CC2)ccc1O (stereo partly drawn) [Example 94, (R)-Propane-2-sulfonic acid [5-(2-{1-[4-(2,4-dioxo-thiazolidin-5-ylmethyl)-phenyl]-piperidin-4-ylamino}-1-hydroxy-ethyl)-2-hydroxy-phenyl]-amide]	> 175 °C (dec.)	
CS(=O)(=O)Nc1cc([C@@H](O)CNC2CCN(c3ccc(C(=O)N4CCC[C@H]4C(=O)O)cc3)CC2)ccc1O (as salt: sodium) [Example 201, 1-(4-{4-[(2R)-2-Hydroxy-2-(4-hydroxy-3-methanesulfonylamino-phenyl)-ethylamino]-piperidin-1-yl}-benzoyl)-pyrrolidine-(2S)-2-carboxylic acid]	> 220 °C (dec.)	
CS(=O)(=O)Nc1cc([C@@H](O)CNC2CCN(c3ccc(C(=O)NCC(=O)O)cc3)CC2)ccc1O (as salt: sodium) [Example 197, [(4-{4-[((2R)-2-Hydroxy-2-{4-hydroxy-3-[(methylsulfonyl)amino]phenyl}ethyl)amino]-1-piperidinyl}benzoyl)amino]acetic acid]	> 85 °C (dec.)	
CC(C)C[C@H](NC(=O)c1ccc(N2CCC(NC[C@H](O)c3ccc(O)c(NS(C)(=O)=O)c3)CC2)cc1)C(=O)O (as salt: sodium) [Example 199, (2S)-2-(4-{4-[(2R)-2-Hydroxy-2-(4-hydroxy-3-methanesulfonylamino-phenyl)-ethylamino]-piperidin-1-yl}-benzoylamino)-4-methyl-pentanoic acid]	> 177 °C (dec.)	
CS(=O)(=O)Nc1ccc(C(O)CNC2CCN(c3ccc(CC4SC(=O)NC4=O)cc3)CC2)cn1 (centres unmarked) (as salt: salt) [Example 138, N-[5-(2-{1-[4-(2,4-Dioxo-thiazolidin-5-ylmethyl)-phenyl]-piperidin-4-ylamino}-1-hydroxy-ethyl)-pyridin-2-yl]-methanesulfonamide]	57 to 59 °C	
Cc1ccc(OC[C@@H](O)CNC2CCN(c3ccc(CC4SC(=O)NC4=O)cc3)CC2)cn1 (stereo partly drawn) [Example 128, 5-(4-{4-[(2S)-2-Hydroxy-3-(6-methyl-pyridin-3-yloxy)-propylamino]-piperidin-1-yl}-benzyl)-thiazolidine-2,4-dione]	87 °C (dec.)	
